Assay results: US20160089464A1, “MALODOR REDUCTION COMPOSITIONS” (The Procter & Gamble Company, priority 2014, published 2016)
Entries after “also recorded” stand apart in the source; their conditions may differ.

experiment: Comment Code material properties: vapor pressure, ClogP, probability of ingredient color instability, odor detection threshold, melamine formaldehyde PMC headspace response ratio and leakage, liquid dish neat product liquid-air partition coefficient; type: physicochemical; conditions: Table 1 materials; each letter of the code is one property class (vapor pressure, ClogP, color instability, odor detection threshold, PMC headspace ratio, PMC leakage, liquid dish liquid-air partition coefficient)

Compound | Comment Code
CC1CC=CCCCCCCCC(=O)OCC1 (stereo not shown) [Material 1099] | DEFHJK
CCCCC/C=C/CCC=O [Material 1073] | ADHKL
C=C1C2CCC(C2)C1(C)C (stereo not shown) [Material 589] | ADEFGIJKL
CC(C)C(=O)OC1CC2CCC1(C)C2(C)C (stereo not shown) [Material 603] | BDEFHIJK
CC1=CC[C@@H]2C3CC([C@@H]2C1)[C@@]1(C3)OC1C (stereo partly shown) [Material 1007] | DEFHJK
CCCCCC=COC(C)=O [Material 869] | ACEFHKL
CC(C)=CCCC(C)(O)C1CC=C(C)CC1 (stereo not shown) [Material 718] | DFHJK
C=C(C)C1CCC2(C)CCCC(=C)C2C1 (stereo not shown) [Material 615] | BDEFGJK
CC1=CCC(CCC(C)CO)C1(C)C (stereo not shown) [Material 600] | DEFHJK
Cc1ccc(CC(C)C=O)cc1 (stereo not shown) [Material 742] | ACHJK
CC1=CC2C(=C(C)CCCC2(C)C)CC1 (stereo not shown) [Material 625] | DEFHJKL
CCCCCCCCCCO [Material 868] | BDEFGJK
CCC(=O)OC(C)(C)C1CC=C(C)CC1 (stereo not shown) [Material 686] | BDEFHJK
CC1(O)CCC2=C(CCCC2(C)C)C1 (stereo not shown) [Material 676] | DEFHJK
CCCCC=CC=CC=O [Material 738] | ACHKL
CCOC(=O)CC(O)(CC(=O)OCC)C(=O)OCC [Material 1091] | CEFGJ
CC1CCC2(O)C(C)(C)C3CCC2(C)C1C3 (stereo not shown) [Material 933] | DEFHIJK
CC(=O)CCCC(C)CCCC(C)CCCC(C)C (stereo not shown) [Material 782] | DEFHJK
CC1CC2CCC3C(C2O1)C(C)(C)C(C)C3(C)C (stereo not shown) [Material 1097] | BDEFHJK
Cc1cccc(CCO)c1 [Material 928] | BCEFHIK
CCC=CCCC=CCO [Material 865] | ACEFHK
CCCCOC(=O)C(C)OC(=O)CCC (stereo not shown) [Material 595] | CEFGJK
C=C[C@](C)(O)CC[C@@H]1[C@@]2(C)CCCC(C)(C)[C@@H]2CC[C@@]1(C)O [Material 1028] | DEFHJ
CC1CCC2C(C2(C)C)C12COC(C)(C)OC2 (stereo not shown) [Material 1036] | BCEFHJK
CC1C[C@H]2C3CCC(C3)[C@H]2CC1=O (stereo partly shown) [Material 980] | CEFGJKL

Compound | Comment Code
C[C@@H]1CCC=C2CC[C@@H](C(C)(C)O)C[C@]21C [Material 1107] | DEFHJK
CC1=CC2C(C(C)C)CCC(C)(O)C2CC1 (stereo not shown) [Material 1046] | DEFHJK
C=C(C)C1CCC2(C)CCC=C(C)C2C1 (stereo not shown) [Material 692] | BDEFHJK
CCCC(O)Cc1ccccc1 (stereo not shown) [Material 730] | CEFHK
COc1ccc(CC(C)C=O)cc1 (stereo not shown) [Material 586] | BCHJK
CC(C)(C=O)CC1=CCC2CC1C2(C)C (stereo not shown) [Material 925] | BDFHJK
CCCCCC(=Cc1ccccc1)C(OCC)OCC [Material 723] | DEFHJ
C=C(C)C1CCC2(C)CCC=C(C)C2C1 (stereo not shown) [Material 774] | BDEFHJK
CC1=CCC(C23CCCC(C)(C2)OC3)C1(C)C (stereo not shown) [Material 570] | DEFHJK
CC(C)=CCCC1(C)C2CC3C(C2)C31C (stereo not shown) [Material 693] | ADEFHJKL
C=CC(=C)CCC=C(C)CCC=C(C)C=O [Material 613] | DHJK
CC(C)=CCCC(C)C12CC=C(C)C1C2 (stereo not shown) [Material 926] | DEFHJKL
CCCC/C=C/C=C/C=O [Material 1064] | ACHKL
CCCCCCC=CC=O [Material 837] | ADHKL
CC1=CCCC2(C)CCC3CC12OC3(C)C (stereo not shown) [Material 726] | BDEFHJK
CC(C)c1ccc(CCC=O)cc1 [Material 826] | BDFHJK
CC(=O)C=CC12OC1(C)CCCC2(C)C (stereo not shown) [Material 636] | BDEFHIJK
CC(C)(C)c1ccc2c(c1)OCC(=O)CO2 [Material 1085] | CEFHJ
CC1(C)C2CC=C(CCC=O)C1C2 (stereo not shown) [Material 781] | BCFHJK
CC/C=C/CC/C=C/C=O [Material 829] | ACHKL
Cc1ccc(OC(=O)Cc2ccccc2)cc1 [Material 998] | DFHJ
C=CC1(C)CCC(C(=C)C)O1 (stereo not shown) [Material 786] | ACGIJKL
C=C1CCC23CC1C(C)(C)C2CCC3C (stereo not shown) [Material 632] | BDEFGJKL
CCC(C)(O)CCC=C(C)C (stereo not shown) [Material 877] | BCEFGIJKL

same assay, conditions: cell strings several class symbols together; each letter is one property class of L1

Compound | Comment Code
C=CC(C)(CCC=C(C)C)OC=O (stereo not shown) [Material 150] | ACFHJK
CCC(=O)OC(C)c1ccccc1 (stereo not shown) [Material 96] | BCHJK
CC1=CC[C@@H]2C3CC([C@@H]2C1)[C@@]1(C3)OC1C (stereo partly shown) [Material 1007] | DEFHJK
CCCCCC1CCCC1O (stereo not shown) [Material 836] | DEFHIKL
CC1(C)CCc2ccc(CCC=O)cc21 [Material 260] | DHJK
CC(C)C(=O)OCc1ccccc1 [Material 647] | BCHJK
CC(OC=O)C1CCCC(C)(C)C1 (stereo not shown) [Material 662] | ADEFHIJKL
CC(=O)OC(C)c1ccccc1 (stereo not shown) [Material 1041] | ACEFHIK
CCCc1ccc(OC)cc1 [Material 987] | ADEFHKL
CC(C)CC(=O)OCc1ccccc1 [Material 645] | BDEFHJK
CCC/C=C\CO [Material 547] | ACEFHIKL
CC(C)C1CCC(CO)CC1 (stereo not shown) [Material 133] | BDEFHIJK
C=CC1(C)Cc2occ(C)c2CC1C(=C)C (stereo not shown) [Material 488] | DHJK
Cc1ccc2ncccc2c1 [Material 777] | BCEFHIKL
CC1CCC2(O)C(C)(C)C3CCC2(C)C1C3 (stereo not shown) [Material 933] | DEFHIJK
C/C=C1/CC2CC1C1CCC(=O)OC21 (stereo not shown) [Material 353] | CEFGJK
CC1CC2CCC3C(C2O1)C(C)(C)C(C)C3(C)C (stereo not shown) [Material 1097] | DEFHJK
CC(C)=CCCC(C)=CC#N [Material 302] | BCEFHKL
CC1=C2CC(C(C)(C)O)CCC2(C)CCC1 (stereo not shown) [Material 329] | DFHJK
C=C[C@](C)(O)CC[C@@H]1[C@@]2(C)CCCC(C)(C)[C@@H]2CC[C@@]1(C)O [Material 1028] | DEFHJ
CC/C=C\CCOC(=O)CCC [Material 540] | ADEFHJKL
C=CC(C)(CCC=C(C)C)OC (stereo not shown) [Material 24] | ADHIJKL

Compound | Comment Code
CC(O)C(C)/C=C1\C[C@H]2C[C@@H]1[C@@H]1C=CC[C@H]21 (stereo partly shown) [Material 359] | DEFHJK
CC1CCC2CC1C2(C)C (stereo not shown) [Material 525] | ADEFGIJKL
CC(C)=CCCC(C)CCOC=O (stereo not shown) [Material 512] | BCEFGJKL
CCc1ccccc1CC(C)(C)C=O [Material 354] | BDHJK
CCC(C)(CCCC(C)C)OC(C)=O (stereo not shown) [Material 1055] | ADEFHJKL
CC1COC(C)(c2ccc3c(c2)C(C)(C)CCC3(C)C)O1 (stereo not shown) [Material 2] | DFHJ
C[C@@H]1CCC=C2CC[C@@H](C(C)(C)O)C[C@]21C [Material 1107] | DEFHJK
CC(C)(C)C1CCCCC1O (stereo not shown) [Material 1122] | ACGIJKL
CC1C2CC(CC2C2CCC(O)CC2)C1(C)C (stereo not shown) [Material 230] | DEFHJK
C=C(C)C1CCC(C)C(=O)C1 (stereo not shown) [Material 419] | ACGIJKL
OCc1ccccc1 [Material 652] | ACEFGIKL
C=C(C)[C@@H]1CC[C@@H](C)C(=O)C1 [Material 1081] | ACGIJKL
CCOCCOCCO [Material 579] | BCEFGIK
CC1=CC(C)C2C(CCC(C)(C)C2O)C1 (stereo not shown) [Material 39] | DEFHIJK
c1ccc(COCc2ccccc2)cc1 [Material 454] | DEFHJK
CC(=O)OCCCCCCC(C)C [Material 204] | BDEFHJKL
CC(C)=CCCC(C)CCO (stereo not shown) [Material 899] | BCHIJKL
CC1CCC2(CCCC(=O)O2)C1 (stereo not shown) [Material 107] | BCEFGIKL
CC1=CC[C@@H]2C[C@H]1C2(C)C [Material 901] | ADEFGIJKL
CC(C)(O)CCC1CCCCC1 [Material 496] | BDEFGIJK
CC(C)=CCCC(C)CC=O (stereo not shown) [Material 891] | ACHIJKL
C=C(C)[C@@H]1CC=C(C)C(=O)C1 [Material 169] | ACGIJKL

Compound | Comment Code
CC1=CCC(C23CCCC(C)(C2)OC3)C1(C)C (stereo not shown) [Material 570] | DEFHJK
CCC(=O)N(CC)c1cccc(C)c1 [Material 755] | CEFHJK
CCC(C)(O)/C=C/C=C(C)C (stereo not shown) [Material 81] | BCEFGIJK
Cc1ccc(C(C)C)cc1 [Material 940] | ADGIJKL
CC(=O)OCCc1ccccc1 [Material 832] | BCEFHK
O=C1CCC2(CCCCC2)O1 [Material 1039] | BCGIKL
CC(=O)C(C)=CC1C(C)=CCCC1(C)C (stereo not shown) [Material 703] | BDHIJK
CC1(C)C2=C(CO)CCC(C)(C)C23CCC1C3 (stereo not shown) [Material 248] | DEFHJK; also recorded: BDEFHJK
CC/C=C\CCOC(=O)OC [Material 163] | ACEFGKL
CC1=CCCC2(C)CCC3CC12OC3(C)C (stereo not shown) [Material 726] | BDEFHJK
CCCCCOC(=O)c1ccccc1 [Material 672] | DEFHJK
CC(=O)OC1CC2C3C=CCC3C1C2(C)C (stereo not shown) [Material 360] | DEFHJK
CC(C)CCCCCCO [Material 205] | BDEFGIKL
Cc1n[nH]cc1-c1ccccc1 [Material 808] | CEFHK
CCCc1ccc(O)c(OC)c1 [Material 440] | CEFHIJK
CC=CC(=O)C1C(C)=CCCC1(C)C (stereo not shown) [Material 1074] | BDHIJK
C=CC(C)=CC=CC(=C)C [Material 495] | ADEFGIKL
CC12CCC(C1)C(C)(C)C2O (stereo not shown) [Material 366] | ACGIJKL
C=C1CCC23CC1C(C)(C)C2CCC3C (stereo not shown) [Material 632] | BDEFGJKL
CC1=CC[C@H]2C[C@@H]1C2(C)C [Material 903] | ADEFGIJKL

same assay, conditions: letter codes A-L: vapor pressure, ClogP, probability of ingredient color instability, odor detection threshold, PMC headspace response ratio, PMC leakage, liquid dish liquid-air partition coefficient; Table 1 materials with at least one MORV from 1 to 5

Compound | Comment Code
COC(=O)c1c(C)cc(O)c(C)c1O [Material 1117] | CGIJ
CCC=CCCOC(=O)C(C)C [Material 1125] | ADEFHJKL
